Measurements as given in paper PMC8536627, “Hydrolytic stability of anticancer drugs and one metabolite in the aquatic environment” (Environmental Science and Pollution Research International, 2021).
Entries after “also recorded” stand apart in the source; their conditions may differ. Where two headings read alike, the source gives them in different places.

Experiments:
[1] = room temperature, ref Franquet-Griell et al. [2017], cited from earlier work
[2] = HPLC water with 4 % DMSO, ref Negreira et al. ([2013a]), cited from earlier work
physchem [3] = assay type: physicochemical; settings: for half-life: buffer, read-out: t½, extrapolated half-life (converted)
Experimental: By obtaining at least two rate constants for two different temperatures, it is possible to calculate the rate constants and, in consequence, half-lives at other temperatures, according to the Arrhenius equation: 3 k=A×e^−E/R×Torlnk=−E/R×T+lnA
Therefore, these equations were applied to extrapolate the obtained results and calculate the rate constants and half-lives of unstable anticancer drugs in more environmentally relevant temperatures (4, 10, or 15 °C), which are typical to natural waters.
Additionally, these observations confirm that CP is much more vulnerable for hydrolysis than IF, which is interesting how two isomers (like CP and IF) may differently undergo hydrolysis process. […] If the conclusions were drawn only based on the results from the preliminary experiments (incubation at 50 °C for 5 days), it would be assumed that both compounds, especially CP, are very unstable. […] Moreover, using Equation 3, it was possible to extrapolate the results to determine the rate constants and half-lives at the temperatures 4, 10, and 15 °C, which are ordinary for environmental waters (Table 2).

physchem [4] = assay type: physicochemical
Experimental: Moreover, the complete preliminary test was repeated twice. […] Each measuring point was performed in two parallel replicates.
where t, time; ct, c0, concentration of the analyte at a time (0 means the beginning of the test); k, rate constant.
Based on this, the t1/2 was determined by using the equation: 2 t1/2=ln2/k
where t1/2, half-life of the analyte; k, rate constant.
The degradation was monitored for 30 days or until 90 % of a compound was degraded. Based on the obtained results (Fig. 4) the constant rates (k) and half-lives (t1/2) have been calculated (Table 1).
After determining the hydrolysis rate constants it was possible to calculate activation energy (Ea) of this process at each pH, either from plotting ln k from T^−1 (Figure 5) when there were three k values obtained for each compound and pH (CP at pH 4, 7, and 9 as well as IF at pH 4) or from the following equation (for IF at pH 7 and 9, where only two k values were obtained) (Table 1): 4 E=Rlnk2−lnk1/1/T1¯−1/T2
where R, gas constant (8.314 J/mol × K); k1, k2, rate constants for different temperatures; T, absolute temperature (K).

[5] = pH 7 and 8.1, 5 days, calculated; ref Booker et al. ([2014]); cited from earlier work
physchem [6] = settings: 5 days; for Degradation level in the preliminary test: dark
Experimental: The incubation was performed in the dark, in order to avoid the influence of the photolysis on degradation of the analytes. The water used for the preparation of buffers was autoclaved, all glassware was clean, flushed with methanol, and dried in high temperature. Samples were closed in glass tubes with a sealed cap. The air from above the solution was removed by a nitrogen stream just before capping. In the preliminary test, solutions of single analytes were prepared in each tested pH: 4, 7, and 9, which is required by the OECD guidelines. There was also a blank sample prepared for each pH. Samples in the preliminary test were prepared in two parallel replicates. Moreover, the complete preliminary test was repeated twice. The preliminary test was performed at 50 °C for 5 days. […] In the case of the extended tests, 7 measuring points were provided during the time of the test. Each measuring point was performed in two parallel replicates. […] The test was conducted for 30 days or to 90 % elimination of a compound. Obtained results were used to determine the hydrolysis rate constant (k) using equation: 1 lnCt/C0=kt
The HPLC-UV/Vis technique was applied to determine the level of hydrolytic degradation of the analytes. In the preliminary test, the control and blank samples were analyzed at the beginning and the end of the test. […] In the extended test, the samples collected in the time intervals were analyzed, and peak areas were compared to those obtained at the beginning of the test. This was used to determine the kinetic of this hydrolysis process by using the Equation 1. In general, each analyte was analyzed by a simple HPLC method with UV/Vis detection. Gemini C18 (Phenomenex, USA), 5 μm, 110 Å, 150 mm × 4.6 mm chromatographic column was applied for each method and three different mobile phases were used (water or 0.1 % HCOOH) mixed with the acetonitrile. The conditions applied during the LC-MS analysis with an ion trap detector for the qualitative analysis of the samples collected after the extended tests at 20 and 70 °C are presented in the Table S2.

[7] = dark conditions, 20 °C, ref Buerge et al. ([2006]); cited from earlier work
[8] = 20 °C, ref Gilard et al. ([1994]), cited from earlier work

O=P1(N(CCCl)CCCl)NCCCO1 (stereo not shown) [CP, cyclophosphamide]
Hydrolytic stability in milli-Q water ([1]; milli-Q water, natural pH): stable
Stability during a 48-h test in pure water ([1]; pure water, 48 h): stable
Stability in 24 h test ([2]; 4 °C): stable
Long-term stability at 4 °C ([2]; 4 °C): stable for 1 month
Stability in 24 h test ([2]; 15 °C): still stable
Stability in 24 h test ([2]; 25 °C): remained stable
k, extrapolated rate constant (physchem [3]; 4 °C, pH 4): 5.1e-05 h⁻¹
k, extrapolated rate constant (physchem [3]; 4 °C, pH 7): 5.3e-05 h⁻¹
k, extrapolated rate constant (physchem [3]; 4 °C, pH 9): 5.3e-05 h⁻¹
k, extrapolated rate constant (physchem [3]; 10 °C, pH 4): 7.1e-05 h⁻¹
k, extrapolated rate constant (physchem [3]; 10 °C, pH 7): 7.4e-05 h⁻¹
k, extrapolated rate constant (physchem [3]; 10 °C, pH 9): 7.3e-05 h⁻¹
k, extrapolated rate constant (physchem [3]; 15 °C, pH 4): 0.000161 h⁻¹
k, extrapolated rate constant (physchem [3]; 15 °C, pH 7): 0.000166 h⁻¹
k, extrapolated rate constant (physchem [3]; 15 °C, pH 9): 0.000166 h⁻¹
half-life (physchem [3]; pH 4, 4 °C, pH 4): 568 days
half-life (physchem [3]; pH 4, 10 °C, pH 4): 406 days
half-life (physchem [3]; pH 4, 15 °C, pH 4): 179 days
half-life (physchem [3]; pH 7, 4 °C, pH 7): 549 days
half-life (physchem [3]; pH 7, 10 °C, pH 7): 393 days
half-life (physchem [3]; pH 7, 15 °C, pH 7): 174 days
half-life (physchem [3]; pH 9, 4 °C, pH 9): 550 days
half-life (physchem [3]; pH 9, 10 °C, pH 9): 394 days
half-life (physchem [3]; pH 9, 15 °C, pH 9): 174 days
Degradation of initial amount in 30 days (physchem [4]; 20 °C, 30 days, pH not specified (pH 4, 7, 9 tested)): around 20%
half-life (physchem [4]; 20 °C, all pH, read-out: Half-life (converted)): ~80 days
k, hydrolysis rate constant (physchem [4]; 20 °C, pH 4): 0.00035 h⁻¹
k, hydrolysis rate constant (physchem [4]; 20 °C, pH 7): 0.00038 h⁻¹
k, hydrolysis rate constant (physchem [4]; 20 °C, pH 9): 0.00037 h⁻¹
k, hydrolysis rate constant (physchem [4]; 50 °C, pH 4): 0.025 h⁻¹
k, hydrolysis rate constant (physchem [4]; 50 °C, pH 7): 0.024 h⁻¹
k, hydrolysis rate constant (physchem [4]; 50 °C, pH 9): 0.024 h⁻¹
half-life (physchem [4]; 50 °C, range over three pH values, read-out: t½, half-life (converted)): 1.15 to 1.23 days
k, hydrolysis rate constant (physchem [4]; 70 °C, pH 4): 0.27 h⁻¹
k, hydrolysis rate constant (physchem [4]; 70 °C, pH 7): 0.28 h⁻¹
k, hydrolysis rate constant (physchem [4]; 70 °C, pH 9): 0.27 h⁻¹
half-life (physchem [4]; buffer, pH 4, 20 °C, pH 4, read-out: t½, half-life (converted)): 81.8 days
half-life (physchem [4]; buffer, pH 4, 50 °C, pH 4, read-out: t½, half-life (converted)): 1.15 days
half-life (physchem [4]; buffer, pH 4, 70 °C, pH 4, read-out: t½, half-life (converted)): 0.108 days
half-life (physchem [4]; buffer, pH 4, 70 °C, range over pH 4, 7, 9, read-out: t½, half-life (converted)): 0.104 to 0.108 days
half-life (physchem [4]; buffer, pH 7, 20 °C, pH 7, read-out: t½, half-life (converted)): 77.8 days
half-life (physchem [4]; buffer, pH 7, 50 °C, pH 7, read-out: t½, half-life (converted)): 1.23 days
half-life (physchem [4]; buffer, pH 7, 70 °C, pH 7, read-out: t½, half-life (converted)): 0.104 days
half-life (physchem [4]; buffer, pH 9, 20 °C, pH 9, read-out: t½, half-life (converted)): 78.9 days
half-life (physchem [4]; buffer, pH 9, 50 °C, pH 9, read-out: t½, half-life (converted)): 1.2 days
half-life (physchem [4]; buffer, pH 9, 70 °C, pH 9, read-out: t½, half-life (converted)): 0.104 days
Ea, activation energy of hydrolysis (physchem [4]; pH 4): 26.58 kcal/mol
Ea, activation energy of hydrolysis (physchem [4]; pH 7): 26.43 kcal/mol
Ea, activation energy of hydrolysis (physchem [4]; pH 9): 26.41 kcal/mol
Ea, activation energy of hydrolysis (physchem [4]; range over pH 4, 7, 9): 26.41 to 26.58 kcal/mol
Stability assessed with SPARC from molecular structure [5]: stable
Hydrolytic stability in the preliminary test (physchem [6]; pH 4, 7 and 9, 50 °C): unstable; also recorded: susceptible to hydrolysis
Degradation level in the preliminary test (physchem [6]; pH 4, 50 °C): completely eliminated
Degradation level in the preliminary test (physchem [6]; pH 7, 50 °C): 91.6%
Degradation level in the preliminary test (physchem [6]; pH 9, 50 °C): completely eliminated
Half-life in lake water [7]: around 80 days
Initial concentration present after 7 days ([8]; pH 3.4–8.6, 7 days): over 95%
Maximum degradation after 17 days ([8]; pH 3.4–8.6, 17 days): ≤ 20%
